Legend:
[1] = test system: ABUTH (Velvetleaf); test: Preemergence herbicidal evaluation; type: in vivo, Abutilon theophrasti; settings: rated 4-5 weeks after treatment
Summary of the method: (§1)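 In this greenhouse assay, monocot and dicot seeds are planted in soil and treated prior to emergence with an aqueous acetone spray (about 0.0156-0.500 kg/ha). Plants are assessed visually against control on a 0-9 scale after 4-5 weeks.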

[2] = test system: SETVI (Foxtail, Green); test: Preemergence herbicidal evaluation; type: in vivo, Setaria viridis; settings: rated 4-5 weeks after treatment
Summary of the method: as §1

[3] = test system: TRZAWR (Wheat, Winter, cv Riband); test: Postemergence herbicidal evaluation; type: in vivo, Triticum aestivum; settings: postemergence
Summary of the method: (§2)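 Two-week-old seedlings sprayed with compound in 50/50 acetone/water plus 0.5% TWEEN 20, at about 0.0156 to 0.500 kg/ha, nozzle at 40 psi. Kept in greenhouse; rated visually 4-5 weeks after treatment on a 0-9 scale versus control, repeat tests averaged.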

[4] = test system: SAGPY (Arrowhead (Pygmaea)); test: Postemergence weed control under flooded paddy conditions; type: in vivo, Sagittaria pygmaea; settings: postemergence weeds, 3-4 weeks after treatment
Text: Results of herbicide evaluation are expressed on a rating scale (0-9). The scale is based upon a visual observation of plant stand, vigor, malformation, size, chlorosis and overall plant appearance as compared with a control.
Plastic containers containing weeds which are 3 to 5 cm tall and rice seedlings at the 1.5 to 2.5 leaf stage are flooded with water. The water is maintained at 1.5 to 3 cm above the soil surface for the duration of the experiment. Test compounds are applied as aqueous/ acetone mixtures 50/50 v/v directly into the flood water to provide the equivalent of about 0.0313 to 0.500 kg/ha of active ingredient. The treated containers are placed on greenhouse benches and cared for in accordance with conventional greenhouse procedures. Three to four weeks after treatment, the test is terminated and each container is examined and herbicidal effect rated according to the rating system provided in Example 37. The compounds evaluated are reported by compound number given in Example 37.

[5] = test system: AMBEL (Ragweed, Common); test: Postemergence herbicidal evaluation; type: in vivo, Ambrosia artemisifolia; settings: postemergence
Summary of the method: as §2

[6] = test system: ORYSAT (Rice, Tebonnet); test: Postemergence herbicidal evaluation; type: in vivo, Oryza sativa, (L.) Tebonnet; settings: postemergence
Summary of the method: as §2

[7] = test system: ABUTH (Velvetleaf); test: Postemergence herbicidal evaluation; type: in vivo, Abutilon theophrasti; settings: postemergence
Summary of the method: as §2

[8] = test system: CYPIR (Rice Flatsedge); test: Postemergence weed control under flooded paddy conditions; type: in vivo, Cyperus iria; settings: postemergence weeds, 3-4 weeks after treatment
Summary of the method: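 With weeds 3 to 5 cm tall and rice at the 1.5 to 2.5 leaf stage, containers were flooded and water held 1.5 to 3 cm above soil. Compounds in 50/50 v/v aqueous/acetone went into the flood water at about 0.0313 to 0.500 kg/ha a.i. Effects were visually rated 0–9 against controls after three to four weeks in the greenhouse.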

[9] = test system: SETVI (Foxtail, Green); test: Postemergence herbicidal evaluation; type: in vivo, Setaria viridis; settings: postemergence
Summary of the method: as §2

[10] = test system: ECHCG (Barnyardgrass); test: Postemergence herbicidal evaluation; type: in vivo, Echinochloa crus-galli; settings: postemergence
Summary of the method: as §2

[11] = test system: SAGPY (Arrowhead (Pygmaea)); test: Preemergence weed control under flooded paddy conditions; type: in vivo, Sagittaria pygmaea; settings: rated 3-4 weeks after treatment
Summary of the method: (§3)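 Silt loam, seeds in top 0.5 cm; flood held 1.5-3 cm; test cpd as acetone/water 50/50 into flood water, ~0.0313-0.500 kg/ha a.i.; greenhouse 3-4 wk; visual 0-9 score vs control.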

[12] = test system: CASOB (Sicklepod); test: Preemergence herbicidal evaluation; type: in vivo, Cassia obtusifolia; settings: rated 4-5 weeks after treatment
Summary of the method: as §1

[13] = test system: MOOVA (Monochoria); test: Preemergence weed control under flooded paddy conditions; type: in vivo, Monochoria vaginalis; settings: rated 3-4 weeks after treatment
Summary of the method: as §3

For CCC1SC(=Nc2cc(N3C(=O)C4=C(CCCC4)C3=O)c(F)cc2Cl)N(C)C1=O (stereo not shown) [Compound 6, N-{4-chloro-5-[(5-ethyl-3-methyl-4-oxo-2-thiazolidinylidene)amino]-2-fluorophenyl}-1-cyclohexene-1,2-dicarboximide], the “ABUTH preemergence herbicidal rating” value ([1]; rate 0.1250 kg/ha) was 0.0, the “ABUTH preemergence herbicidal rating” value ([1]; rate 0.2500 kg/ha) was 0.0 and the “ABUTH preemergence herbicidal rating” value ([1]; rate 0.5000 kg/ha) was 0.0. The “SETVI preemergence herbicidal rating” value ([2]; rate 0.1250 kg/ha) was 0.0, the “SETVI preemergence herbicidal rating” value ([2]; rate 0.2500 kg/ha) was 2.0 and the TRZAWR herbicidal rating ([3]; rate 0.0157 kg/ha) was 2.5. The TRZAWR herbicidal rating ([3]; rate 0.0313 kg/ha) was 2.5, the TRZAWR herbicidal rating ([3]; rate 0.0625 kg/ha) was 3.0 and the TRZAWR herbicidal rating ([3]; rate 0.1250 kg/ha) was 3.0. For the same compound, the TRZAWR herbicidal rating ([3]; rate 0.2500 kg/ha) was 3.5, the TRZAWR herbicidal rating ([3]; rate 0.5000 kg/ha) was 3.5 and the “Herbicidal rating SAGPY” value ([4]; rate 0.0313 kg/ha) was 0.0. For the same compound, the “Herbicidal rating SAGPY” value ([4]; rate 0.0625 kg/ha) was 0.0, the “Herbicidal rating SAGPY” value ([4]; rate 0.1250 kg/ha) was 0.0 and the “Herbicidal rating SAGPY” value ([4]; rate 0.2500 kg/ha) was 0.0. The “Herbicidal rating SAGPY” value ([4]; rate 0.5000 kg/ha) was 0.0, the AMBEL herbicidal rating ([5]; rate 0.0157 kg/ha) was 2.0 and the AMBEL herbicidal rating ([5]; rate 0.0313 kg/ha) was 2.0. It also gave an AMBEL herbicidal rating ([5]; rate 0.0625 kg/ha) of 2.0, an AMBEL herbicidal rating ([5]; rate 0.1250 kg/ha) of 4.0 and an AMBEL herbicidal rating ([5]; rate 0.2500 kg/ha) of 4.0. The AMBEL herbicidal rating ([5]; rate 0.5000 kg/ha) was 4.0, the ORYSAT herbicidal rating ([6]; rate 0.0157 kg/ha) was 2.5 and the ORYSAT herbicidal rating ([6]; rate 0.0313 kg/ha) was 2.5. It also gave an ORYSAT herbicidal rating ([6]; rate 0.0625 kg/ha) of 2.5, an ORYSAT herbicidal rating ([6]; rate 0.1250 kg/ha) of 2.5 and an ORYSAT herbicidal rating ([6]; rate 0.2500 kg/ha) of 2.5. It also gave an ORYSAT herbicidal rating ([6]; rate 0.5000 kg/ha) of 2.5, an ABUTH herbicidal rating ([7]; rate 0.0157 kg/ha) of 7.0 and an ABUTH herbicidal rating ([7]; rate 0.0313 kg/ha) of 8.0. It also gave an ABUTH herbicidal rating ([7]; rate 0.0625 kg/ha) of 8.0, an ABUTH herbicidal rating ([7]; rate 0.1250 kg/ha) of 9.0 and an ABUTH herbicidal rating ([7]; rate 0.2500 kg/ha) of 9.0. The ABUTH herbicidal rating ([7]; rate 0.5000 kg/ha) was 9.0, the “Herbicidal rating CYPIR” value ([8]; rate 0.0313 kg/ha) was 0.0 and the “Herbicidal rating CYPIR” value ([8]; rate 0.0625 kg/ha) was 1.0. For the same compound, the “Herbicidal rating CYPIR” value ([8]; rate 0.1250 kg/ha) was 2.0, the “Herbicidal rating CYPIR” value ([8]; rate 0.2500 kg/ha) was 3.0 and the “Herbicidal rating CYPIR” value ([8]; rate 0.5000 kg/ha) was 3.5. The SETVI herbicidal rating ([9]; rate 0.0157 kg/ha) was 0.0, the SETVI herbicidal rating ([9]; rate 0.0313 kg/ha) was 0.0 and the SETVI herbicidal rating ([9]; rate 0.0625 kg/ha) was 0.0. The SETVI herbicidal rating ([9]; rate 0.1250 kg/ha) was 2.0, the SETVI herbicidal rating ([9]; rate 0.2500 kg/ha) was 2.0 and the SETVI herbicidal rating ([9]; rate 0.5000 kg/ha) was 2.0. It also gave an ECHCG herbicidal rating ([10]; rate 0.0157 kg/ha) of 0.0, an ECHCG herbicidal rating ([10]; rate 0.0313 kg/ha) of 0.0 and an ECHCG herbicidal rating ([10]; rate 0.0625 kg/ha) of 0.0. It also gave an ECHCG herbicidal rating ([10]; rate 0.1250 kg/ha) of 0.0, an ECHCG herbicidal rating ([10]; rate 0.2500 kg/ha) of 1.0 and an ECHCG herbicidal rating ([10]; rate 0.5000 kg/ha) of 2.0. The “Herbicidal rating SAGPY” value ([11]; 0.0313 kg/ha) was 0.0, the “Herbicidal rating SAGPY” value ([11]; 0.0625 kg/ha) was 0.0 and the “Herbicidal rating SAGPY” value ([11]; 0.1250 kg/ha) was 0.0. For the same compound, the “Herbicidal rating SAGPY” value ([11]; 0.2500 kg/ha) was 0.0, the “Herbicidal rating SAGPY” value ([11]; 0.5000 kg/ha) was 0.0 and the “CASOB preemergence herbicidal rating” value ([12]; rate 0.1250 kg/ha) was 0.0. For the same compound, the “CASOB preemergence herbicidal rating” value ([12]; rate 0.2500 kg/ha) was 0.0, the “CASOB preemergence herbicidal rating” value ([12]; rate 0.5000 kg/ha) was 0.0 and the “Herbicidal rating MOOVA” value ([13]; 0.0313 kg/ha) was 2.0. For the same compound, the “Herbicidal rating MOOVA” value ([13]; 0.0625 kg/ha) was 8.0, the “Herbicidal rating MOOVA” value ([13]; 0.1250 kg/ha) was 8.0 and the “Herbicidal rating MOOVA” value ([13]; 0.2500 kg/ha) was 9.0. The “Herbicidal rating MOOVA” value ([13]; 0.5000 kg/ha) was 9.0.

Reference: patent US20020137929A1, “1 - (3-heterocyclylphenyl) isothiourea, -isourea, -guanidine and -amidine herbicidal agents” (Intellectual Property Department, BASF Aktiengesellschaft, priority 1998, published 2002)
